Like-named read-outs stand apart in the source and are kept apart here.
How the values were obtained:
[1] = Single intravenous dose PK; assay type: in vivo, Bama minipig; details: for CLs: Bama minipigs
Description: The PK of ribitol was studied in 2 male and 2 female Bama minipigs following escalating IV doses levels using the same animals with a 48 hour washout period at 10 mg/kg (Day 1), 30 mg/kg (Day 3) and 100 mg/kg (Day 5). On each dosing day, blood samples were collected serially up to 24 hours post dose.

[2] = Phase 1 SAD/MAD study in healthy subjects; assay type: in vivo, human; details: for Cmax / Tmax / AUC(0-t): human, in vivo, oral, steady state, 6 days; for AUC(0-t): read-out: AUC(0-24)
From the text: The study described below is a randomized, blinded, placebo-controlled, parallel group study of the administration of single ascending doses (SAD) and multiple ascending doses (MAD) of ribitol to healthy subjects. The SAD part of this study includes 1 food effect (FE) cohort. The SAD and MAD phases of the study are nested.
Up to a maximum of 6 cohorts will be enrolled. The starting dose will be 0.5 g. Tentative dose levels will be 1.5 g, 3 g, 6 g, and 12 g, however, actual dose increments (including possible decrements) for Cohorts 2 and above will be determined by the safety review committee (SRC) and based on a minimum of 24 h of post dose PK data and at least 72 h post dose safety data from the previous dose level. A sentinel dosing plan will be employed at each dose level where the first 2 healthy participants (1 ribitol, 1 placebo) of each cohort will be dosed as sentinels at least 24 h prior to dosing the remaining cohort's participants. Once the informed consent form (ICF) is signed and eligibility criteria are determined, subjects will be admitted to the clinical research unit (CRU) 1 day prior to dosing (Day −1). Continuous cardiac monitoring using telemetry will be performed starting at least 12 h prior to dosing through at least 24 h after dosing.
Subjects will be admitted to the CRU 1 day prior to dosing (Day −1). On Day 1, subjects will start a 6-day course of orally administered daily study drug together with water after an overnight fast of at least 10 h prior to through at least 4 h after dosing. If dosing occurs more than once per day based on the data from the SAD cohort(s), instructions for dosing and any relaxation of the fasting requirements will be provided in a separate document. Water ad libitum is permitted except 1 h prior to through 1 h after dosing. Subjects will remain in the CRU until Day 8. Vital signs, ECGs, evaluation of AEs and blood draws for PK and safety laboratory tests will be obtained serially (see Schedule of Assessments, below). Subjects will return for an EOS visit on Day 10 (+5 day window allowed).
In the Phase 1 study, conducted essentially as described above, in Example 3. Subject in the single dose arm received 0.5, 1.5, 3, 6, 9, 12, or 15 grams of ribitol (data not shown). […] Subjects in the multiple dose arm received 1.5 g once daily, 3 g once daily, 3 g twice daily (q 12 h), 6 g twice daily (q 12 h), and 9 g twice daily (q 12 h). Subjects in the 3 g BID arm achieved steady-state AUC(0-24) values about the target threshold set by animal studies (182 μg*h/mL).
Clinical studies were performed as described in Example 3, with the exception that two additional doses of ribitol (9 g and 15 g) were administered in the SAD arm, i.e., the SAD doses were 0.5 g, 1.5 g, 3 g, 6 g, 9 g, 12 g, and 15 g ribitol.

[3] = 7-day repeat-dose oral toxicokinetics; assay type: in vivo, Bama minipig; details: for Tmax / Cmax / AUC(0-t): Bama, minipig, plasma; for AUC(0-t): read-out: AUC0-24
Description: Toxicokinetics were evaluated as part of a 7-day oral repeat-dose dose range finding study in Bama minipigs. […] On Days 1 and 7, blood was taken for plasma TK at 0 (pre first dose), 0.5, 1, 2, 4, 6 (pre-second dose), 6.5, 7, 8, 10, and 24 hours post-first dose.

[4] = 3 g, 3 g q 12 h (total 6 g/day)
[5] = 6 g q 12 h, 6 g q 12 h (total 12 g/day)
[6] = 9 g, 9 g q 12 h (total 18 g/day)
[7] = single doses 0.5, 1.5, 3, 6, 9, 12, 15 g
[8] = female, po, 0.1 g/kg, 0.1 g/kg BID, Day 1, F
[9] = female, po, 0.1 g/kg, 0.1 g/kg BID, Day 7, F
[10] = female, po, 0.3 g/kg, 0.3 g/kg BID, Day 1, F
[11] = female, po, 0.3 g/kg, 0.3 g/kg BID, Day 7, F
[12] = female, po, 1 g/kg, 1.0 g/kg BID, Day 1, F
[13] = female, po, 1 g/kg, 1.0 g/kg BID, Day 7, F
[14] = male, po, 0.1 g/kg, 0.1 g/kg BID, Day 1, M
[15] = male, po, 0.1 g/kg, 0.1 g/kg BID, Day 7, M
[16] = male, po, 0.3 g/kg, 0.3 g/kg BID, Day 1, M
[17] = male, po, 0.3 g/kg, 0.3 g/kg BID, Day 7, M
[18] = male, po, 1 g/kg, 1.0 g/kg BID, Day 1, M
[19] = male, po, 1 g/kg, 1.0 g/kg BID, Day 7, M

## OC[C@@H](O)[C@@H](O)[C@@H](O)CO [ribitol, (2R,3s,4S)-Pentane-1,2,3,4,5-pentol]
[1]; Bama, minipig, plasma, IV 10 mg/kg, female
  AUC(0-inf): 17 µg·h/mL
[1]; Bama, minipig, plasma, IV 10 mg/kg, female, read-out: T1/2 (converted)
  half-life: 33.4 min
[1]; Bama, minipig, plasma, IV 10 mg/kg, female, read-out: Vss
  Vd: 0.417 L/kg
[1]; Bama, minipig, plasma, IV 10 mg/kg, male
  AUC(0-inf): 11.2 µg·h/mL
[1]; Bama, minipig, plasma, IV 10 mg/kg, male, read-out: T1/2 (converted)
  half-life: 32.7 min
[1]; Bama, minipig, plasma, IV 10 mg/kg, male, read-out: Vss
  Vd: 0.603 L/kg
[1]; Bama, minipig, plasma, IV 30 mg/kg, female
  AUC(0-inf): 57 µg·h/mL
[1]; Bama, minipig, plasma, IV 30 mg/kg, female, read-out: T1/2 (converted)
  half-life: 44.9 min
[1]; Bama, minipig, plasma, IV 30 mg/kg, female, read-out: Vss
  Vd: 0.582 L/kg
[1]; Bama, minipig, plasma, IV 30 mg/kg, male
  AUC(0-inf): 35.8 µg·h/mL
[1]; Bama, minipig, plasma, IV 30 mg/kg, male, read-out: T1/2 (converted)
  half-life: 31.1 min
[1]; Bama, minipig, plasma, IV 30 mg/kg, male, read-out: Vss
  Vd: 0.5 L/kg
[1]; Bama, minipig, plasma, IV 100 mg/kg, female
  AUC(0-inf): 210 µg·h/mL
[1]; Bama, minipig, plasma, IV 100 mg/kg, female, read-out: T1/2 (converted)
  half-life: 59.6 min
[1]; Bama, minipig, plasma, IV 100 mg/kg, female, read-out: Vss
  Vd: 0.434 L/kg
[1]; Bama, minipig, plasma, IV 100 mg/kg, male
  AUC(0-inf): 150 µg·h/mL
[1]; Bama, minipig, plasma, IV 100 mg/kg, male, read-out: T1/2 (converted)
  half-life: 46.4 min
[1]; Bama, minipig, plasma, IV 100 mg/kg, male, read-out: Vss
  Vd: 0.449 L/kg
[1]; IV 10 mg/kg, female
  CLs: 10.1 mL/min/kg
[1]; IV 10 mg/kg, male
  CLs: 15.1 mL/min/kg
[1]; both sexes, Bama, plasma, iv, minipig, range, read-out: T1/2 following the IV dose
  half-life: 31.1 to 59.6 min
[1]; both sexes, Bama, plasma, minipig, IV 10-100 mg/kg, range, read-out: Systemic clearance (CLs)
  clearance: 7.95 to 15.1 mL/min/kg
[1]; both sexes, Bama, plasma, minipig, IV, range, read-out: Volume of distribution at steady state (Vss)
  Vd: 0.417 to 0.603 L/kg
[2]; SAD 0.5-15 g
  dose linearity with exposure: confirmed dose linearity with exposure
[2]; 1.5 g, 1.5 g once daily
  Cmax: 25 µg/mL
  Tmax: 30.2 min
  AUC(0-t): 59.8 µg·h/mL
[2]; 3 g, 3 g once daily
  Cmax: 35.6 µg/mL
  Tmax: 30.2 min
  AUC(0-t): 95 µg·h/mL
[2]; [4]
  Cmax: 38 µg/mL
  Tmax: 30.1 min
  AUC(0-t): 219 µg·h/mL
[2]; [5]
  Cmax: 107 µg/mL
  Tmax: 45 min
  AUC(0-t): 500 µg·h/mL
[2]; [6]
  Cmax: 143 µg/mL
  Tmax: 30.1 min
  AUC(0-t): 673 µg·h/mL
[2]; [7]
  dose limiting toxicity: no dose limiting toxicity was observed
  tolerability: well tolerated
[3]; 7 days, up to 1.0 g/kg/dose BID
  drug accumulation: no apparent accumulation
[3]; both sexes, oral, post first dose, Days 1 and 7, range
  Tmax: 30 to 390 min
[3]; [8]
  Cmax: 53.1 µg/mL
  Tmax: 228 min
  AUC(0-t): 284 µg·h/mL
[3]; [9]
  Cmax: 40.2 µg/mL
  Tmax: 48 min
  AUC(0-t): 317 µg·h/mL
[3]; [10]
  Cmax: 112 µg/mL
  Tmax: 48 min
  AUC(0-t): 676 µg·h/mL
[3]; [11]
  Cmax: 159 µg/mL
  Tmax: 30 min
  AUC(0-t): 784 µg·h/mL
[3]; [12]
  Cmax: 299 µg/mL
  Tmax: 78 min
  AUC(0-t): 1750 µg·h/mL
[3]; [13]
  Cmax: 331 µg/mL
  Tmax: 78 min
  AUC(0-t): 1870 µg·h/mL
[3]; [14]
  Cmax: 35.5 µg/mL
  Tmax: 210 min
  AUC(0-t): 160 µg·h/mL
[3]; [15]
  Cmax: 45.1 µg/mL
  Tmax: 210 min
  AUC(0-t): 183 µg·h/mL
[3]; [16]
  Cmax: 117 µg/mL
  Tmax: 390 min
  AUC(0-t): 504 µg·h/mL
[3]; [17]
  Cmax: 58.3 µg/mL
  Tmax: 30 min
  AUC(0-t): 438 µg·h/mL
[3]; [18]
  Cmax: 308 µg/mL
  Tmax: 228 min
  AUC(0-t): 169 µg·h/mL
[3]; [19]
  Cmax: 283 µg/mL
  Tmax: 78 min
  AUC(0-t): 1920 µg·h/mL

Source: patent publication US20230364118A1, “RIBITOL TREATMENT” (priority 2020, published 2023)
